From patent US8071555B2, “Protective skin care peptides” (Helix BioMedix Inc., priority 2007, dated 2011)
Where “and” joins values, the source holds several entries; their conditions need not be identical. Equal values may be shown once. Each block holds one molecule with its values, some of them ahead of it. Ends that are not written are not given here. Peptide text beside a SMILES is read from it. * marks the point of attachment. Decanoyl = CCCCCCCCCC(=O)*

Columns and labels:
[1] = tested on: IL-6 expression; assay: UVB-induced IL-6 expression in human skin epithelial cells (ELISA); assay type: cell-based; conditions: for reduction of IL-6 levels: skin epithelial cells treated with UVB; for repression of UVB-induced IL-6 expression: skin epithelial cells, peptide 40 μg/mL, 24 hours post UVB
Method: (§1) Human skin epithelial cells (ATCC CRL-2592), keratinocytes (ATCC CRL-2404) and skin fibroblasts (ATCC CRL-7481) were employed in the study. Cells were seeded into 6-well plates and allowed to grow to >95% confluence in Dulbecco's modified Eagle's medium (DMEM; 4 mM L-glutamine, 4.5 g/L glucose) adjusted to contain 1.5 g/L sodium bicarbonate and supplemented with 10% fetal bovine serum (FBS). For keratinocytes, cells were grown in keratinocyte growth media (without serum) supplemented with 5 ng/mL human recombinant epithelial growth factor (EGF; Invitrogen, Grand Island, N.Y.). After the cell monolayer reached >95% confluence, the cells were serum-starved or EGF-starved for 24 hours in complete medium without serum. UVA or UVB was generated using a UVLMS lamp (4-W model, 3UV assembly; Upland, Calif.) with the irradiation wavelength set at 365 or 302 nm, respectively. The UV lamp was placed 15 cm above the tissue culture plate. Before UV treatment, the tissue culture media was replaced with PBS, after which the cells were placed under the UVB lamp (450 μW/cm^2, measured using a radiometer) for 35 seconds (epithelial cells and fibroblasts) or 25 seconds (keratinocytes). UVA treatment was conducted (500 μW/cm^2) for 30 seconds with fibroblasts. After UV treatment, PBS was immediately replaced with complete medium (without serum or EGF) containing either no peptide or peptide at a specified concentration, and the plates were incubated at 37° C., 5% CO2 for 15-24 hours. The cell media was then collected and spun down at 15000 rpm for 2 minutes to remove cell debris. IL-6 and MMP-1 levels in the media were measured, respectively, using human IL-6 (DIACLONE, Stamford, Conn.) and MMP-1 (Calbiochem, San Diego, Calif.) ELISA kits according to manufacturers' instructions. These measurements served as indicators of cell inflammatory activity in response to UV exposure.
All the tetrapeptides listed in Table I were subjected to a screening test at 40 μg/mL for potential down-regulation of this response (data not shown).
P1422 (SEQ ID NO:1) reduced IL-6 levels by 19% and 25% at 10 and 20 μg/mL, respectively; and P1423 (SEQ ID NO:2) reduced IL-6 levels by 10% and 20% at 10 and 20 μg/mL, respectively.

[2] = tested on: IL-6 expression; assay: UVB-induced IL-6 expression in human keratinocytes (ELISA); assay type: cell-based; conditions: UVB-treated human keratinocytes; peptide 10 μg/mL
Method: as §1, with “UVA treatment was conducted (500 μW/cm^2) for 30 seconds with fibroblasts. After UV treatment, PBS was immediately replaced with complete medium (without serum or EGF) containing either no peptide or peptide at a specified concentration, and the plates were incubated at 37° C., 5% CO2 for 15-24 hours. The cell media was then collected and spun down at 15000 rpm for 2 minutes to remove cell debris.” left out, “These measurements served as indicators of cell inflammatory activity in response to UV exposure.” left out

[3] = tested on: IL-6 expression; assay: UVB-induced IL-6 expression in human skin fibroblasts (ELISA); assay type: cell-based; conditions: human fibroblasts after UVB
Method: as §1
Such peptide-mediated IL-6 down-regulation was also evident in human fibroblasts after exposure to UVB.

[4] = tested on: MMP-1 expression; assay: UVA-induced MMP-1 expression in human skin fibroblasts (ELISA); assay type: cell-based; conditions: UVA 500 μW/cm^2, peptide 10 μg/mL
Method: as §1, with “UVA treatment was conducted (500 μW/cm^2) for 30 seconds with fibroblasts. After UV treatment, PBS was immediately replaced with complete medium (without serum or EGF) containing either no peptide or peptide at a specified concentration, and the plates were incubated at 37° C., 5% CO2 for 15-24 hours. The cell media was then collected and spun down at 15000 rpm for 2 minutes to remove cell debris.” left out, “These measurements served as indicators of cell inflammatory activity in response to UV exposure.” left out

[5] = tested on: MMP-1 expression; assay: MMP-1 induction in fibroblasts incubated in media conditioned by UVB-treated keratinocytes (ELISA); assay type: cell-based, human; conditions: peptide 10 μg/mL
Method: as §1, with “UVA treatment was conducted (500 μW/cm^2) for 30 seconds with fibroblasts. After UV treatment, PBS was immediately replaced with complete medium (without serum or EGF) containing either no peptide or peptide at a specified concentration, and the plates were incubated at 37° C., 5% CO2 for 15-24 hours. The cell media was then collected and spun down at 15000 rpm for 2 minutes to remove cell debris.” left out, “These measurements served as indicators of cell inflammatory activity in response to UV exposure.” left out

[6] = tested on: trypsin; assay: Peptide degradation by trypsin with or without protease inhibitor (LC/MS); assay type: in vitro ADME; conditions: for Survival: Trypsin 25 μg/mL, peptide 1 mg/mL
Method: (§2) Peptides of synthetic origin and LL-37 were used in the protease processing experiments at a concentration of 1-2 mg/mL in 0.5M MOPS pH 8.5/0.5M NaCl final buffer concentration. Proteases were used at a concentration of 0.020-0.050 mg/mL.
(§3) Experiments were run in pairs, one with protease inhibitor and one without a protease inhibitor. Liquid chromatography/mass spectrometry (LC/MS) spectra were collected at approximately 1-minute, 1-hour, 4-hour and 24-hour time points from the time of adding protease to the peptide (time zero). LC/MS spectra were collected using a standard reverse phase gradient starting at 5% acetonitrile and ramping up to 65% acetonitrile in 25 minutes.
(§4) The proteases employed in the study were initially dissolved in a 1M NaCl solution, while the peptides were dissolved in 1M MOPS buffer at pH 8.5. The solutions were equilibrated to 37° C. and then mixed at a ratio of 1:1 to start each experiment. Lower buffer concentrations were also used (0.1M MOPS pH 8.5 and 0.2M NaCl). Protease inhibitors were tested at several different concentrations (low and high from 0.02 mg/mL to 40 mg/mL) against a given protease.
(§5) The mass spectrometer used in these studies has a limit of detection below which the specific molecular weight of a molecule cannot be identified from the TIC trace. In these below-detection situations, it was assumed that the tested peptide was completely degraded.
(§6) A series of experiments were performed employing the above-described methodology to determine the utility of the invention as it regards a wider range of proteases, peptides and protease inhibitors. If, at any specific time-point, there was no detectable parent peptide (i.e., the absence of non-degraded peptide), then that time-point was documented as the time required for peptide degradation.

[7] = tested on: elastase; assay: Peptide degradation by elastase with or without protease inhibitor (LC/MS); assay type: in vitro ADME; conditions: Elastase 25 μg/mL, peptide 1 mg/mL
Method: as §2, §3, §4, §5, §6

[8] = biological target: T1, plasmin (Homo sapiens, UniProt P00747); assay: Peptide degradation by plasmin with or without protease inhibitor (LC/MS); assay type: in vitro ADME; conditions: for Survival: peptide 1 mg/mL
T1 construct: purchased Sigma-Aldrich
Method: as §2, §3, §4, §5, §6

[9] = tested on: kallikrein; assay: Peptide degradation by kallikrein with or without protease inhibitor (LC/MS); assay type: in vitro ADME; conditions: Kallikrein 25 μg/mL, peptide 1 mg/mL
Method: as §2, §3, §4
The mass spectrometer used in these studies has a limit of detection below which the specific molecular weight of a molecule cannot be identified from the TIC trace. In these below-detection situations, it was assumed that the tested peptide was completely degraded. […]

[10] = biological target: T2, chymotrypsin (Bos taurus, UniProt P00766); assay: Peptide degradation by chymotrypsin with or without protease inhibitor (LC/MS); assay type: in vitro ADME; conditions: peptide 1 mg/mL
T2 construct: purchased Sigma-Aldrich
Method: as §2, §3, §4, §5, §6

T1 sequence (P00747 581-810 limits assumed, species assumed): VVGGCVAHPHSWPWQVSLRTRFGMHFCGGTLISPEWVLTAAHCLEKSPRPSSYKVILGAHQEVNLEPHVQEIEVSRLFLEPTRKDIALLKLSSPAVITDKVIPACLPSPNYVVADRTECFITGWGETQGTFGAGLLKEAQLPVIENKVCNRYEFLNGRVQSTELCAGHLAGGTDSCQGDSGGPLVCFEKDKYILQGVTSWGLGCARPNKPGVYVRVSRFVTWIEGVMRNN
T1 sequence (P00747 97-580 limits assumed, species assumed): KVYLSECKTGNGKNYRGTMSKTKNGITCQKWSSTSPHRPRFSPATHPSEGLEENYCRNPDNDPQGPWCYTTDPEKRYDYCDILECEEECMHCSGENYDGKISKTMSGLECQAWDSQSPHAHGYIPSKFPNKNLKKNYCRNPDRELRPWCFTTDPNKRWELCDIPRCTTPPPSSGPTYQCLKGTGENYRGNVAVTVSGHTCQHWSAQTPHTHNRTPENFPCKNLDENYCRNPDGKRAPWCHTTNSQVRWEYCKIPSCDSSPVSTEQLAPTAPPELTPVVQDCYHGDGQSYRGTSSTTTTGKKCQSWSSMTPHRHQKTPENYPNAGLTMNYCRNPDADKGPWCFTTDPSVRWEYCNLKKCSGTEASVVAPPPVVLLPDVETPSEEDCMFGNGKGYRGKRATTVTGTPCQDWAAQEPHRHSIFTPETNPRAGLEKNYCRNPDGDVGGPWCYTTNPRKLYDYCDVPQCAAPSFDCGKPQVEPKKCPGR

Molecule: PQEK-NH2 [P1422, tetrapeptide amidated at the carboxy terminus]
reduction of IL-6 levels ([1]; peptide 10 μg/mL): 19%
reduction of IL-6 levels ([1]; peptide 20 μg/mL): 25%
repression of UVB-induced IL-6 expression [1]: reproducible repression
down-regulation of IL-6 expression [2]: down-regulate IL-6 expression
reduction of IL-6 levels compared to control ([3]; peptide 10 μg/mL): 30%
reduction of IL-6 ([3]; peptide concentrations lower than 10 μg/mL): no significant reduction
down-regulation of UVA-induced MMP-1 expression [4]: able to down-regulate
MMP-1 induction [5]: far less MMP-1 induction

Molecule: FALLKL-NH2 [HB168]
Survival ([6]; aprotinin 0.02 mg/mL): >24 h
Survival ([6]; no protease inhibitor): <1 h

Molecule: PQEI-NH2 [P1423, tetrapeptide amidated at the carboxy terminus]
reduction of IL-6 levels ([1]; peptide 10 μg/mL): 10%
reduction of IL-6 levels ([1]; peptide 20 μg/mL): 20%
repression of UVB-induced IL-6 expression [1]: reproducible repression
down-regulation of IL-6 expression [2]: down-regulate IL-6 expression
reduction of IL-6 levels compared to control ([3]; peptide 2 μg/mL): 24%
reduction of IL-6 levels compared to control ([3]; peptide 5 μg/mL): 30%
reduction of IL-6 levels compared to control ([3]; peptide 10 μg/mL): 48%
down-regulation of UVA-induced MMP-1 expression [4]: able to down-regulate
MMP-1 induction [5]: far less MMP-1 induction

parent peak in TIC traces [6]: reduced over time
amount of parental peptide by XIC trace compared to plasmin alone ([8]; plasmin plus tranexamic acid vs plasmin alone): five-times greater
degradation of peptide (TIC and XIC traces) ([8]; plasmin, no inhibitor, 4-hour exposure): most of the HB64 peptide was degraded
Molecule: FAKALKALLKALKAL-NH2 [HB64, FAKALKALLKALKAL-NH2]
Survival ([7]; aprotinin 0.02 mg/mL): <1 h
Survival ([7]; no protease inhibitor): <1 h
Survival ([7]; tranexamic acid 0.80 mg/mL): <1 h
Survival ([8]; Plasmin 20 μg/mL, no protease inhibitor): <4 h
Survival ([8]; Plasmin 22 μg/mL, tranexamic acid 40 mg/mL): <24 h
Survival ([8]; Plasmin 25 μg/mL, no protease inhibitor): <4 h and <6 h
Survival ([8]; Plasmin 46 μg/mL, no protease inhibitor): <4 h
Survival ([8]; Plasmin 50 μg/mL, tranexamic acid 10 mg/mL): <6 h
protection of peptide (TIC and XIC traces) ([8]; plasmin plus tranexamic acid, 4-hour exposure): protected from plasmin-mediated proteolysis
Survival ([9]; no protease inhibitor): <24 h
Survival ([9]; tranexamic acid 0.80 mg/mL): <24 h
Survival ([10]; Chymotrypsin 25 μg/mL, aprotinin 0.02 mg/mL): <24 h
Survival ([10]; Chymotrypsin 25 μg/mL, no protease inhibitor): <1 h

Molecule: CC[C@H](C)[C@H](NC(=O)[C@H](CCCCN)NC(=O)[C@H](CCC(=O)O)NC(=O)[C@H](CCCCN)NC(=O)[C@H](CO)NC(=O)[C@H](CCCCN)NC(=O)[C@H](CCCNC(=N)N)NC(=O)[C@H](Cc1ccccc1)NC(=O)[C@H](Cc1ccccc1)NC(=O)[C@H](CC(=O)O)NC(=O)CNC(=O)[C@H](CC(C)C)NC(=O)[C@@H](N)CC(C)C)C(=O)NCC(=O)N[C@@H](CCCCN)C(=O)N[C@@H](CCC(=O)O)C(=O)N[C@@H](Cc1ccccc1)C(=O)N[C@@H](CCCCN)C(=O)N[C@@H](CCCNC(=N)N)C(=O)N[C@H](C(=O)N[C@H](C(=O)N[C@@H](CCC(N)=O)C(=O)N[C@@H](CCCNC(=N)N)C(=O)N[C@H](C(=O)N[C@@H](CCCCN)C(=O)N[C@@H](CC(=O)O)C(=O)N[C@@H](Cc1ccccc1)C(=O)N[C@@H](CC(C)C)C(=O)N[C@@H](CCCNC(=N)N)C(=O)N[C@@H](CC(N)=O)C(=O)N[C@@H](CC(C)C)C(=O)N[C@H](C(=O)N1CCC[C@H]1C(=O)N[C@@H](CCCNC(=N)N)C(=O)N[C@H](C(=O)N[C@@H](CCC(=O)O)C(=O)N[C@@H](CO)C(=O)O)[C@@H](C)O)C(C)C)[C@@H](C)CC)C(C)C)[C@@H](C)CC [LL-37]
parent peptide detection [8]: undetectable
Survival ([8]; Plasmin 22 μg/mL, no protease inhibitor): <1 h
Survival ([8]; Plasmin 22 μg/mL, no protease inhibitor, Expt. 38): <0.75 h
Survival ([8]; Plasmin 22 μg/mL, tranexamic acid 9 mg/mL): <4 h
Survival ([10]; Chymotrypsin 22 μg/mL, no protease inhibitor): <1 h
Survival ([10]; Chymotrypsin 22 μg/mL, tranexamic acid 9 mg/mL): <1 h

Molecule: CCCCCCCCCC(=O)N[C@@H](CCCCN)C(=O)N[C@@H](Cc1ccccc1)C(=O)N[C@@H](CCCCN)C(=O)N[C@@H](Cc1c[nH]c2ccccc12)C(=O)N1CCC[C@H]1C(=O)N[C@@H](Cc1c[nH]c2ccccc12)C(N)=O [HB1345, decanoyl-KFKWPW-NH2] (Decanoyl-KFKWPW-NH2)
Survival ([6]; aprotinin 0.02 mg/mL): >24 h
Survival ([6]; no protease inhibitor): <1 h
